The text below walks through data of patent publication US20230099837A1, “COMPOSITIONS AND METHODS FOR TREATING NEURODEGENERATIVE DISORDERS WITH RIPK1/RIPK3 INHIBITORS” (Arizona Board of Regents on Behalf of the University of …, priority 2020, published 2023).

Holding throughout (format): cell-based
For assay [1], the system named is Phospho-RIPK3 (Ser227). Nature of the assay: Western blot, phosphorylated RIPK3 in HT-29 cells. The note with it: 100 μM, necroptosis induced 3 hrs, normalized to b-actin. The method, then: As previously reported, RIPK3 activation from necroptotic stimulus can be readily and accurately measured by phosphorylation at Ser227 (see, Chen, W. Z. et al. Journal of Biological Chemistry 288, 16247-16261 (2013)).
(§1) HT-29 cells were grown as described above and plated on a 6 well plate. After incubating overnight, cells were incubated with 100 μM of noted compounds in FIG. 3 for 30 min._Necroptosis was induced in the cells for 3 hours, as described in Necroptosis flow assay section, before harvesting with 75 μL RIPA buffer system (Santa Cruz sc-24948) containing 2 mM PMSF, 1 mM Sodium Orthovanadate, and 1% final volume of protease inhibitor. Samples were_centrifuged for 10 min at 20000×g and 4° C. The supernatant was mixed with 25 μL of NuPAGE_LDS sample buffer dye 4× containing 0.1 M DTT and heated for 10 min at 90° C. SDS-PAGE_separation and membrane transfer were performed as described under the CETSA protocol. […]
(§2) The secondary Anti-rabbit IgG, HRP-linked antibody (Cell Signaling Technology #7074S) was_used at a dilution of 1:1500 in PBS-T with 5% BSA. […] Data_were quantified with ImageLab™ software. […]

The subject of assay [2] is HT-29 cells. Nature of the assay: Necroptosis flow assay (Annexin V / propidium iodide staining, flow cytometry). The note with it: 100 μM compound 30 min before induction with TNF-a/Z-VAD-fmk/SM-164 for 7 hours, vs DMSO. As for the experimental part: Necroptosis was allowed to proceed for 7 hours (hrs) before Annexin V and propidium iodide staining and flow cytometry analysis (FIG. 3). Cells staining positive for either Annexin V or propidium iodide were quantified as necroptotic cells (FIG. 1F). […] Docking results from RMITC03 and RMITC09 indicate most interactions are driven through hydrophobic interactions with a few hydrogen bonds interacting with the backbone of the protein (FIG. 1D-E).
HT-29 cells were grown in DMEM (Corning 10-013-CV) with 10% FBS (HyClone SH3091003)_and incubated at 37° C. and 5% CO2. […] Necroptosis was induced with 25 ng/mL TNF-a (Prospec CYT-223), 20_μM Z-VAD-fmk (AdooQ Bioscience A12373), and 0.1 μM SM-164 (AdooQ Bioscience A15800) for 7 hours in an incubator at 37° C. and 5% CO2. HT-29 cells were trypsinized (Corning 25-053-CI) and washed with DPBS (Corning 21-031-CV) (see, Bundscherer, A. et al. Anticancer Research 33, 3201-3204 (2013)). Cells were processed and stained with Annexin V and propidium iodide as described by manufacturer's protocol in the eBioscience™ Annexin V-FITC Apoptosis Detection Kit (Invitrogen BMS500FI-500). Flow cytometry was performed with MACSQuant® Analyzer 10 and data was processed with Flowlogic™ flow cytometry analysis software.

In assay [3] the test system is RIPK1. Briefly: Western blot, total RIPK1 in HT-29 cells. The note with it: 100 μM, necroptosis induced 3 hrs, normalized to b-actin. As for the experimental part: (§3) If RMITC03 and RMITC09 are disrupting the protein-protein interactions between RIPK3 and MLKL, then the effect of such inhibition should be observed in the activation of MLKL. To test this, HT-29 cells were treated with 100 μM of each compound for 30 min before necroptosis induction. Cells were harvested after 3 hrs with RIPA buffer in order to determine amount of inhibition at each stage of the necroptotic signaling molecules. When comparing the amounts of RIPK1, RIPK3, and MLKL in DMSO treated necroptosis activated cells (T/S/Z) against non necroptosis activated cells (Non-treated samples), there is no statistically significant difference in the amounts of these proteins (FIG. 6A-B).
(§4) HT-29 cells were grown as described above and plated on a 6 well plate. After incubating overnight, cells were incubated with 100 μM of noted compounds in FIG. 3 for 30 min._Necroptosis was induced in the cells for 3 hours, as described in Necroptosis flow assay section, before harvesting with 75 μL RIPA buffer system (Santa Cruz sc-24948) containing 2 mM PMSF, 1 mM Sodium Orthovanadate, and 1% final volume of protease inhibitor. Samples were_centrifuged for 10 min at 20000×g and 4° C. […]
as §2
(Immunoblotting shows a protein as a band on a membrane.)

Assay [4] has as its system MLKL. Nature of the assay: Western blot, total MLKL in HT-29 cells. The note with it: 100 μM, necroptosis induced 3 hrs, normalized to b-actin. As for the experimental part: as §3, §4, §2
In assay [5] the test system is Phospho-RIPK1 (Ser166). Nature of the assay: Western blot, phosphorylated RIPK1 in HT-29 cells. The note with it: 100 μM, necroptosis induced 3 hrs, normalized to b-actin.
Text: Autophosphorylation of RIPK1 at Ser166 facilitates RIPK1 kinase activity to induce cell_death (see, Meng, H. Y. et al. Proceedings of the National Academy of Sciences of the United States of America 115, E2001-E2009 (2018)). As such, phosphorylation at Ser166 was used to detect activation of necroptosis. […] Similarly, in the non-necroptosis activated on treated sample, there is also no phosphorylated RIPK1 signal. When comparing the DMSO sample to RMITC03 and RMITC09 treated samples, there is a large amount of activated phosphorylated RIPK1 with no difference between the DMSO control and RMITC03 and RMITC09 compounds.
as §4, §2

Assay [6] has as its system RIPK3. Briefly: Western blot, total RIPK3 in HT-29 cells. The note with it: 100 μM, necroptosis induced 3 hrs, normalized to b-actin. The method, then:
as §3, §4, §2

Assay [7] deals with Phospho-MLKL (Ser358). Nature of the assay: Western blot, phosphorylated MLKL in HT-29 cells. The note with it: 100 μM, necroptosis induced 3 hrs, normalized to b-actin. As for the experimental part:
RIPK3 is known to activate MLKL through phosphorylation at Ser358 for necroptotic cell death (see, Sun, L. M. et al. Cell 148, 213-227 (2012)). Therefore, the amount of phosphorylated MLKL at Ser358 was used to determine if any inhibition of MLKL activation occurred.
as §1, §2

Each structure is given as a SMILES string. “Also recorded” adds a separate entry of the source.

As to `CC(C)S(=O)(=O)c1ccc2nccc(Nc3ccc4scnc4c3)c2c1` [GSK'872], the “phosphorylated RIPK3 (Ser227) compared to DMSO” value in assay [1] is listed as “significant decrease; also recorded: Inhibition of activated phosphorylated RIPK3 at Ser227”. Moreover, in assay [2], the “inhibitory effect on necroptosis (cells positive for Annexin V or propidium iodide)” value is given as “largest inhibition of necroptosis”. Besides, in assay [3], the “amount of RIPK1 compared to DMSO” value is on record as “no significant difference”. Moreover, the “amount of MLKL compared to DMSO” value in assay [4] is recorded as “no significant difference”. The “phosphorylated RIPK1 (Ser166) signal compared to DMSO” value in assay [5] was “significant decrease; also recorded: no observable phosphorylated RIPK11 signal”. In assay [6], the “amount of RIPK3 compared to DMSO” value was “no significant difference”. Besides, the “phosphorylated MLKL (Ser358) compared to DMSO” value in assay [7] is “significant decrease; also recorded: lowest levels of phosphorylated MLKL”.

As to `CN1C(=O)C(Cc2c[nH]c3ccccc23)NC1=S` (stereo not shown) [Nec-1], the “phosphorylated RIPK3 (Ser227) compared to DMSO” value in assay [1] is “did not completely inhibit activation of phosphorylated RIPK3”. The “amount of RIPK1 compared to DMSO” value in assay [3] is listed as “no significant difference”. Moreover, the “amount of MLKL compared to DMSO” value in assay [4] is “no significant difference”. In addition, the “phosphorylated RIPK1 (Ser166) signal compared to DMSO” value in assay [5] is “significant decrease; also recorded: no observable phosphorylated RIPK11 signal”. For the same compound, the “amount of RIPK3 compared to DMSO” value in assay [6] is on record as “no significant difference”. Also, the “phosphorylated MLKL (Ser358) compared to DMSO” value in assay [7] was “significant decrease; also recorded: lowest levels of phosphorylated MLKL”.
